Experimental data taken from patent USRE38117E1, “Trioxane dimer compound having antiproliferative and antitumor activities” (Hauser, Inc., priority 1995, dated 2003).

Key:
Assay type in all cases: cell-based
KM12 = test: NCI 60 cell line screen (SRB), Colon Cancer
RPMI-8226 = test: NCI 60 cell line screen (SRB), Leukemia; conditions: RPMI-8226 (Leukemia)
HL-60(TB) = test: NCI 60 cell line screen (SRB), Leukemia; conditions: HL-60(TB) (Leukemia)
MOLT-4 = test: NCI 60 cell line screen (SRB), Leukemia; conditions: for drug concentration necessary to achieve primary growth inhibition (percentage growth +50): MOLT-4, read from dose response curves FIGS. 10a-10e
MALME-3M = test: NCI 60 cell line screen (SRB), Melanoma; conditions: MALME-3M (Melanoma)
LOX IMVI = test: NCI 60 cell line screen (SRB), Melanoma
SN12C = test: NCI 60 cell line screen (SRB), Renal Cancer
NCI-H322M = test: NCI 60 cell line screen (SRB), Non-Small Cell Lung Cancer
786-0 = test: NCI 60 cell line screen (SRB), Renal Cancer; conditions: 786-0 (Renal Cancer)
IGROVI = test: NCI 60 cell line screen (SRB), Ovarian Cancer
UO-31 = test: NCI 60 cell line screen (SRB), Renal Cancer; conditions: UO-31 (Renal Cancer)
UACC-257 = test: NCI 60 cell line screen (SRB), Melanoma; conditions: UACC-257 (Melanoma)
MDA-MB-435 = test: NCI 60 cell line screen (SRB), Breast Cancer; conditions: MDA-MB-435 (Breast Cancer)
OVCAR-4 = test: NCI 60 cell line screen (SRB), Ovarian Cancer; conditions: OVCAR-4 (Ovarian Cancer)
K-562 = test: NCI 60 cell line screen (SRB), Leukemia; conditions: K-562 (Leukemia)
BT-549 = test: NCI 60 cell line screen (SRB), Breast Cancer; conditions: BT-549 (Breast Cancer)
CAKI-1 = test: NCI 60 cell line screen (SRB), Renal Cancer; conditions: CAKI-1 (Renal Cancer)
SR = test: NCI 60 cell line screen (SRB), Leukemia
MDA-MB231/ATCC = test: NCI 60 cell line screen (SRB), Breast Cancer
M14 = test: NCI 60 cell line screen (SRB), Melanoma
RXF 393 = test: NCI 60 cell line screen (SRB), Renal Cancer; conditions: RXF 393 (Renal Cancer)
SK-MEL-2 = test: NCI 60 cell line screen (SRB), Melanoma; conditions: SK-MEL-2 (Melanoma)
HCT-116 = test: NCI 60 cell line screen (SRB), Colon Cancer; conditions: HCT-116 (Colon Cancer)
SNB-19 = test: NCI 60 cell line screen (SRB), CNS Cancer; conditions: SNB-19 (CNS Cancer)
UACC-62 = test: NCI 60 cell line screen (SRB), Melanoma; conditions: UACC-62 (Melanoma)
EKVX = test: NCI 60 cell line screen (SRB), Non-Small Cell Lung Cancer
SNB-75 = test: NCI 60 cell line screen (SRB), CNS Cancer; conditions: SNB-75 (CNS Cancer)
HOP-92 = test: NCI 60 cell line screen (SRB), Non-Small Cell Lung Cancer; conditions: HOP-92 (Non-Small Cell Lung Cancer)
SK-MEL-5 = test: NCI 60 cell line screen (SRB), Melanoma; conditions: SK-MEL-5 (Melanoma)
HS 578T = test: NCI 60 cell line screen (SRB), Breast Cancer; conditions: HS 578T (Breast Cancer)

In the case of `CC(=O)O[C@H]1C(=O)[C@@]2(C)[C@H]([C@H](OC(=O)c3ccccc3)[C@]3(O)C[C@H](OC(=O)[C@H](O)[C@@H](NC(=O)c4ccccc4)c4ccccc4)C(C)=C1C3(C)C)[C@]1(OC(C)=O)CO[C@@H]1C[C@@H]2O` [Paclitaxel, paclitaxel, reference compound], the Log10GI50 (KM12) is reported as −11.43 M, the Log10LC50 (KM12) is reported as over −4.00 M and the Log10TGI (KM12) is reported as −4.36 M. The Log10GI50 (RPMI-8226) was under −13.00 M, the Log10LC50 (RPMI-8226) was over −4.00 M and the Log10TGI (RPMI-8226) was over −4.00 M. For the same compound, the Log10GI50 (HL-60(TB)) was −11.57 M, the Log10LC50 (HL-60(TB)) was over −4.53 M and the Log10TGI (HL-60(TB)) was −4.53 M. The Log10GI50 (MOLT-4; MOLT-4 (Leukemia)) was −11.07 M, the Log10LC50 (MOLT-4; MOLT-4 (Leukemia)) was over −4.00 M and the Log10TGI (MOLT-4; MOLT-4 (Leukemia)) was over −4.00 M. The “drug concentration necessary to achieve primary growth inhibition (percentage growth +50)” value (MOLT-4) was “less than 10^−8 molar”, the Log10LC50 (MALME-3M) was −4.11 M and the Log10TGI (MALME-3M) was −4.46 M. For the same compound, the Log10GI50 (LOX IMVI) was −11.80 M, the Log10LC50 (LOX IMVI) was over −4.15 M and the Log10TGI (LOX IMVI) was −4.65 M. For the same compound, the Log10GI50 (SN12C) was −9.53 M, the Log10LC50 (SN12C) was over −4.00 M and the Log10GI50 (NCI-H322M) was −10.12 M. It also gave a Log10LC50 (NCI-H322M) of over −4.00 M, a Log10TGI (NCI-H322M) of −4.46 M and a Log10GI50 (786-0) of −8.01 M. For the same compound, the Log10LC50 (786-0) was over −4.00 M, the Log10TGI (786-0) was over −4.00 M and the Log10GI50 (IGROVI) was −8.61 M. For the same compound, the Log10LC50 (IGROVI) was over −4.00 M, the Log10TGI (IGROVI) was −4.19 M and the Log10GI50 (UO-31) was −6.09 M. For the same compound, the Log10GI50 (UACC-257) was −10.30 M, the Log10LC50 (UACC-257) was −4.03 M and the Log10TGI (UACC-257) was −4.52 M. It also gave a Log10GI50 (MDA-MB-435) of under −13.00 M, a Log10GI50 (OVCAR-4) of −5.00 M and a Log10LC50 (OVCAR-4) of over −4.00 M. For the same compound, the Log10TGI (OVCAR-4) was −4.19 M, the Log10GI50 (K-562) was −10.83 M and the Log10LC50 (K-562) was over −4.00 M. For the same compound, the Log10TGI (K-562) was over −4.00 M, the Log10GI50 (BT-549) was −9.31 M and the Log10LC50 (BT-549) was over −4.00 M. The Log10TGI (BT-549) was −6.32 M, the Log10LC50 (CAKI-1) was over −4.00 M and the Log10LC50 (SR) was over −4.00 M. It also gave a Log10TGI (SR) of over −4.00 M, a Log10GI50 (MDA-MB231/ATCC) of −8.54 M and a Log10TGI (MDA-MB231/ATCC) of −4.84 M. For the same compound, the Log10GI50 (M14) was −11.73 M, the Log10LC50 (M14) was −4.13 M and the Log10TGI (M14) was −4.62 M. It also gave a Log10GI50 (RXF 393) of −8.32 M, a Log10LC50 (RXF 393) of over −4.00 M and a Log10TGI (RXF 393) of over −4.00 M. It also gave a Log10GI50 (SK-MEL-2) of −9.53 M, a Log10LC50 (SK-MEL-2) of over −4.00 M and a Log10GI50 (HCT-116) of under −13.00 M. For the same compound, the Log10LC50 (HCT-116) was over −4.00 M, the Log10TGI (HCT-116) was −4.82 M and the Log10GI50 (SNB-19) was −8.98 M. The Log10LC50 (SNB-19) was over −4.00 M, the Log10TGI (SNB-19) was over −4.00 M and the Log10GI50 (UACC-62) was −10.46 M. For the same compound, the Log10LC50 (UACC-62) was −4.19 M and the Log10TGI (UACC-62) was −4.71 M.
For `C[C@@H]1CC[C@H]2[C@@H](C)C(=O)O[C@@H]3O[C@@]4(C)CC[C@@H]1[C@]32OO4` [QHS, 3,6,9-trimethyl-9,10b-epidioxyperhydropyrano[4,3,2-jk]benzoxepin-2-one, reference compound], the Log10GI50 (EKVX) was over −4.00 M, the Log10LC50 (EKVX) was over −4.00 M and the Log10TGI (EKVX) was over −4.00 M. For the same compound, the Log10GI50 (KM12) was over −4.00 M, the Log10LC50 (KM12) was over −4.00 M and the Log10TGI (KM12) was over −4.00 M. It also gave a Log10GI50 (RPMI-8226) of over −4.00 M, a Log10LC50 (RPMI-8226) of over −4.00 M and a Log10TGI (RPMI-8226) of over −4.00 M. It also gave a Log10GI50 (HL-60(TB)) of −4.26 M, a Log10LC50 (HL-60(TB)) of over −4.00 M and a Log10TGI (HL-60(TB)) of −4.00 M. The Log10GI50 (MOLT-4; MOLT-4 (Leukemia)) was −4.73 M, the “drug concentration necessary to achieve primary growth inhibition (percentage growth +50)” value (MOLT-4) was “greater than 10^−4 molar” and the Log10LC50 (MALME-3M) was over −4.00 M. For the same compound, the Log10TGI (MALME-3M) was −4.06 M, the Log10GI50 (SN12C) was −4.21 M and the Log10LC50 (SN12C) was over −4.00 M. For the same compound, the Log10TGI (SN12C) was over −4.00 M, the Log10GI50 (786-0) was over −4.00 M and the Log10LC50 (786-0) was over −4.00 M. The Log10TGI (786-0) was over −4.00 M, the Log10GI50 (SNB-75) was over −4.00 M and the Log10LC50 (SNB-75) was over −4.00 M. For the same compound, the Log10TGI (SNB-75) was over −4.00 M, the Log10GI50 (IGROVI) was −4.31 M and the Log10LC50 (IGROVI) was over −4.00 M. The Log10TGI (IGROVI) was over −4.00 M, the Log10GI50 (UO-31) was −4.06 M and the Log10LC50 (UO-31) was over −4.00 M. For the same compound, the Log10TGI (UO-31) was −4.00 M, the Log10GI50 (UACC-257) was over −4.00 M and the Log10LC50 (UACC-257) was over −4.00 M. It also gave a Log10TGI (UACC-257) of over −4.00 M, a Log10GI50 (K-562) of −4.33 M and a Log10LC50 (K-562) of over −4.00 M. The Log10TGI (K-562) was −4.00 M, the Log10GI50 (BT-549) was −4.06 M and the Log10LC50 (BT-549) was over −4.00 M. For the same compound, the Log10TGI (BT-549) was −4.00 M, the Log10GI50 (HOP-92) was over −4.00 M and the Log10LC50 (HOP-92) was over −4.00 M. For the same compound, the Log10TGI (HOP-92) was over −4.00 M, the Log10GI50 (SR) was over −4.00 M and the Log10LC50 (SR) was over −4.00 M. The Log10TGI (SR) was over −4.00 M, the Log10GI50 (SK-MEL-5) was −4.10 M and the Log10LC50 (SK-MEL-5) was over −4.00 M. The Log10TGI (SK-MEL-5) was over −4.00 M, the Log10GI50 (MDA-MB231/ATCC) was −4.20 M and the Log10LC50 (MDA-MB231/ATCC) was over −4.00 M. The Log10TGI (MDA-MB231/ATCC) was −4.00 M, the Log10LC50 (M14) was over −4.00 M and the Log10TGI (M14) was over −4.00 M. It also gave a Log10GI50 (RXF 393) of −4.08 M, a Log10LC50 (RXF 393) of over −4.00 M and a Log10TGI (RXF 393) of over −4.00 M. The Log10LC50 (SK-MEL-2) was over −4.00 M, the Log10TGI (SK-MEL-2) was over −4.00 M and the Log10GI50 (HCT-116) was −4.00 M. The Log10LC50 (HCT-116) was over −4.00 M, the Log10TGI (HCT-116) was over −4.00 M and the Log10GI50 (SNB-19) was over −4.00 M. It also gave a Log10LC50 (SNB-19) of over −4.00 M, a Log10TGI (SNB-19) of over −4.00 M and a Log10GI50 (UACC-62) of over −4.00 M. The Log10LC50 (UACC-62) was over −4.00 M, the Log10TGI (UACC-62) was over −4.00 M and the Log10GI50 (HS 578T) was over −4.00 M. The Log10LC50 (HS 578T) was over −4.00 M and the Log10TGI (HS 578T) was over −4.00 M.
